PubChem BioAssay (NCI)
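Growth conditions: 96-well plates. Treatment: test compound, 48 hours, 5 concentrations. Analysis: linear interpolation between bracketing concentrations; unreached endpoints set to highest concentration. Here, GI50 denotes the concentration required for 50% inhibition of growth. TGI: concentration producing complete growth inhibition.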

Legend:
Experiment in all cases: DTP human tumour cell line panel, 48 h
HOP-62 NSCLC = test system: HOP-62 NSCLC
A498 renal = test system: A498 renal
MOLT-4 leukemia = test system: MOLT-4 leukemia
SK-MEL-5 melanoma = test system: SK-MEL-5 melanoma
HCT-15 colon = test system: HCT-15 colon
ACHN renal = test system: ACHN renal
COLO 205 colon = test system: COLO 205 colon
NCI/ADR-RES ovarian = test system: NCI/ADR-RES ovarian
HCT-116 colon = test system: HCT-116 colon
MCF7 breast = test system: MCF7 breast

Compound	TGI (HOP-62 NSCLC) [µM]	TGI (A498 renal) [µM]	TGI (MOLT-4 leukemia) [µM]	TGI (SK-MEL-5 melanoma) [µM]	TGI (HCT-15 colon) [µM]	TGI (ACHN renal) [µM]	TGI (COLO 205 colon) [µM]	GI50 (HOP-62 NSCLC) [µM]	GI50 (NCI/ADR-RES ovarian) [µM]	TGI (NCI/ADR-RES ovarian) [µM]	GI50 (HCT-116 colon) [µM]	TGI (HCT-116 colon) [µM]	GI50 (A498 renal) [µM]	GI50 (HCT-15 colon) [µM]	GI50 (MCF7 breast) [µM]	TGI (MCF7 breast) [µM]	GI50 (ACHN renal) [µM]	GI50 (COLO 205 colon) [µM]	GI50 (MOLT-4 leukemia) [µM]	GI50 (SK-MEL-5 melanoma) [µM]
CCOc1ccc2c(c1)[n+]([O-])c(-c1nc3ccccc3s1)c(N)[n+]2[O-]	> 100	> 100	> 100	93.8	> 100	> 100	> 100													
Cn1c2ccccc2c2c3[nH]c(=O)[nH]c(=O)c3c3c4ccccc4n(C)c3c21	5.83	4.37			> 100	6.62	> 100	2.03	2.89	17	2.37	12.9	0.0475	1.62	1.9	> 100	1.33	2.44		
COc1cc2c(c(OC)c1)C1(CC(CC#N)C2)SCCS1 (centres undefined)	> 100	> 100	> 100	> 100	> 100	> 100	> 100					> 100								
COc1ccc2c3c(coc13)C(CCC(=O)O)CC2 (centres undefined)	> 100	> 100		> 100	> 100	> 100	> 100					> 100								
COc1ccc(CNc2nc3cc(C(F)(F)F)ccc3nc2C)cc1OC	69.9	83.6	45.7	31.3	> 100		> 100					> 100								
COC(=O)C(=O)C(C(=O)C=C(C)C)C(=O)C(=O)Nc1ccc(C)cc1C (centres undefined)	> 100	> 100	> 100	> 100	> 100	> 100	> 100					> 100								
CCCS(=O)(=O)/C(=C(\c1ccc(Br)cc1)S(=O)(=O)CCC)c1ccc(Br)cc1	> 10	> 10	> 10	> 10	> 10	> 10	> 10					> 10								
CC(=O)O.[Au].c1ccc([PH+](c2ccccc2)c2ccccc2)cc1	27.7		4.17	2.9	3.15	8.53	4.73	13.7			1.72	3.2		1.56			2.86	1.99	1.61	1.26
Cc1nc2ccccc2c(=O)n1-c1ccccc1F	> 100	> 100	> 100	> 100	> 100	> 100	> 100					> 100								
CC(C)c1cc2c(O)c(c1)Cc1cc(C(C)C)cc(c1O)Cc1cc(C(C)C)cc(c1O)Cc1cc(C(C)C)cc(c1O)C2	> 100	> 100	> 100	> 100	> 100		> 100					> 100								
CNc1nc(N)c(N=O)c(Nc2ccc(Br)cc2)n1	> 100		> 100	> 100	> 100	> 100	> 100			> 100		> 100				> 100				
OC/C=C(\I)CCCOCOCc1ccccc1	> 100	> 100	13.1	54.5	> 100	> 100	> 100					> 100								
N.N.O=C([O-])P(=O)([O-])[O-].[Na+].[Pt+4]	> 100	> 100	> 100	> 100	> 100	> 100	> 100	> 100			> 100	> 100	> 100	> 100			> 100	> 100	> 100	> 100
COC(=O)c1cc(C)c(C)c2c1NC(=O)CNC2=O	> 100	> 100	> 100		> 100	> 100	> 100					> 100								
N#C/C(=C\c1cc2ccccc2c2ccccc12)c1ccccc1	17.6	38.3	28	19.7	39.4	> 83.5	10.6					18.2								
c1cc[c]([Pb]([c]2ccccc2)[c]2ccccc2)cc1	79.3	46.2	71.7	32.6	28.4	> 100	30.3	36.9			10.5	27.1	16	12.4			33.4	14.8	15.7	12.3
CC(=O)N1C/C(=C\c2ccc(N(C)C)cc2)C(=O)/C(=C/c2ccc(N(C)C)cc2)C1	> 100	> 100	> 100	> 100	> 100	> 100						> 100								
COc1cc2c(c(OC)c1OC)C(=O)[C@@H]1c3ccc([N+](=O)[O-])cc3C(=O)N(CCCBr)[C@H]21	41.4		> 100	27.5	> 100	58.5	> 100	13.9	11	44.9	4.59	51		20.3	4.71	> 100	15.2	9.86	19.8	11
CCCCOC(=O)NC(=O)c1cn(C2CCCCC2)c(=O)[nH]c1=O	65.9	49	> 100		> 100	67.3	> 100					50.1								
O=C(O)[C@@H]1CCCCN1Cc1cc2cc3c(cc2c2cc(OCc4ccccc4)ccc12)OCO3	31.6		> 100	3.61	13.7	10.3	15.8	16.1	19.3	39.6	17.4	31.1		3.27	2.05	16.5	2.73	3.05	63.3	1.62
